Measured values taken from ChEMBL document CHEMBL4673339, “Immunomodulatory Constituents of Conocephalum conicum (Snake Liverwort) and the Relationship of Isolepidozenes to Germacranes and Humulanes” (J Nat Prod, 2020).
Calls of active or inactive are those of the source. No cut-off for these calls is given here.

What was measured:
[1] = Cytotoxicity against Wistar rat splenocytes assessed as cell viability at >10 uM after 24 to 48 hrs by MTT assay; format: tissue-based; conditions: splenocyte, time 24-48 hrs
Splenocyte [2] = test: Immunomodulatory activity in Wistar rat splenocytes assessed as decrease in LPS-induced cell proliferation at 500 uM after 48 hrs by MTT assay; format: functional, cell-based
[3] = Cytotoxicity against Wistar rat splenocytes assessed as reduction in cell viability at 100 to 500 uM after 24 hrs by MTT assay; format: tissue-based; conditions: splenocyte, dose 100-500 µM
Splenocyte [4] = test: Immunomodulatory activity in Wistar rat splenocytes assessed as decrease in ConA-induced cell proliferation at 0.1 to 500 uM after 48 hrs by MTT assay; format: functional, cell-based; conditions: dose 0.1-500 µM
Splenocyte [5] = test: Immunomodulatory activity in Wistar rat splenocytes assessed as decrease in LPS-induced cell proliferation at 0.1 to 10 uM after 48 hrs by MTT assay; format: functional, cell-based; conditions: dose 0.1-10 µM
Splenocyte [6] = test: Immunomodulatory activity in Wistar rat splenocytes assessed as decrease in LPS-induced cell proliferation at 0.1 to 100 uM after 48 hrs by MTT assay; format: functional, cell-based; conditions: dose 0.1-100 µM
[7] = Cytotoxicity against Wistar rat splenocytes assessed as cell viability at 0.1 uM after 48 hrs by MTT assay; format: tissue-based; conditions: splenocyte
[8] = Cytotoxicity against Wistar rat splenocytes assessed as reduction in cell viability at 100 uM after 48 hrs by MTT assay relative to control; format: tissue-based; conditions: splenocyte
[9] = Cytotoxicity against Wistar rat splenocytes assessed as reduction in cell viability at 0.1 to 500 uM after 48 hrs by MTT assay; format: tissue-based; conditions: splenocyte, dose 0.1-500 µM
[10] = Cytotoxicity against Wistar rat splenocytes assessed as cell viability at 100 uM after 48 hrs by MTT assay relative to control; format: tissue-based, Splenocyte; conditions: read-out: Activity

| SMILES | Activity [1] | Activity (Splenocyte [2]) | Activity [3] | Activity (Splenocyte [4]) | Activity (Splenocyte [5]) | Activity (Splenocyte [6]) | Activity [7] | Activity [8] [%] | Activity [9] | viability at 48 h, 100 µM [10] [%] |
| --- | --- | --- | --- | --- | --- | --- | --- | --- | --- | --- |
| C[C@@H]1/C=C/[C@H](C(C)(C)O)CC/C(CO)=C/CC1 (relative stereo) | Toxic | inactive | Toxic | Active | Active |  |  |  |  |  |
| C/C1=C\[C@@H]2[C@@H](CC/C(CO)=C/CC1)C2(C)C (relative stereo) | Toxic |  | Toxic | Active |  | inactive |  |  |  |  |
| C[C@H]1CCC2=C(C(C)(C)O)CC(C)(C)C[C@@H]21 (relative stereo) |  | inactive | Toxic | Active | Active |  | Non-Toxic |  |  |  |
| C[C@@H]1C[C@H]2[C@@H]3CCC4=CC(=O)C=C[C@]4(C)[C@@]3(F)[C@@H](O)C[C@]2(C)[C@@]1(O)C(=O)CO [DEXAMETHASONE] |  |  |  |  |  |  |  | 65 |  |  |
| C[C@@H]1/C=C/C(C)(C)[C@H](O)CC/C(CO)=C/CC1 (relative stereo) |  | inactive | Toxic | Active | Active |  |  |  | Toxic | 60 |
